Article PMC11714206, “Massively Parallel Screening of Toll/Interleukin‐1 Receptor (TIR)‐Derived Peptides Reveals Multiple Toll‐Like Receptors (TLRs)‐Targeting Immunomodulatory Peptides” (Advanced Science, 2024)

Target: T1, MyD88^TIR (Homo sapiens, UniProt Q99836)
T1 construct: MyD88 (residues 148–296); 6xHis; made in house; host or cells: E. coli BL21 (DE3)
Test: T‐Surf phage library (P8 and P3) selection against MyD88^TIR, four rounds, NGS read counts
Assay type: binding
Details: for P3_MyD88 Rank (after) / P3_MyD88 Rank (before): P3 library; for P8_MyD88 Rank (after) / P8_MyD88 Rank (before): P8 library; for Population: 4th round of selection against MyD88 TIR, share of NGS reads
Procedure, shortened: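 Read counts come from NGS of phage pools after the fourth selection round, barcoded by 20-cycle PCR and filtered for quality ≥30. Each round: phage incubated 1 h at RT on immobilised TIR protein (5 µg mL^−1, BSA-blocked), washed, HCl-eluted and amplified in E. coli TG1.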

[1] = P3_MyD88: rank by count after grouping
[2] = P3_MyD88: rank by count before grouping
[3] = selection against MyD88, rank after grouping
[4] = selection against MyD88, rank before grouping
[5] = selection against MyD88, rank by count after grouping
[6] = selection against MyD88, rank by count before grouping
[7] = P8_MyD88: rank by count after grouping
[8] = P8_MyD88: rank by count before grouping
[9] = 4R selection against MyD88, rank after grouping
[10] = 4R selection against MyD88, rank before grouping
[11] = P8_MyD88 pool: P8 T-Surf phage library
[12] = P8_MyD88: rank by NGS read count after grouping
[13] = P8_MyD88: rank by NGS read count before grouping
[14] = P3_MyD88 pool: P3 T-Surf phage library
[15] = selection against MyD88 TIR, rank by count after grouping
[16] = selection against MyD88 TIR, rank by count before grouping

T1 sequence (Q99836 148-296): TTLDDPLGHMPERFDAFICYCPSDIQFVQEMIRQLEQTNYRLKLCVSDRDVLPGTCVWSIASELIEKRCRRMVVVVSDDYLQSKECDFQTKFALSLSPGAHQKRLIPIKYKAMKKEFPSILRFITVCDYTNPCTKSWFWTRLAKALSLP

HLRKEFDKRLITSFKD
Rank (after) [1]: 387
Rank (before) [2]: 2800

HPWRNTLTAAANLNGR
P3_MyD88 Rank (after) [3]: 546
P3_MyD88 Rank (before) [4]: 2804

HQLSVDIQGYALKAGV
P3_MyD88 Rank (after) [5]: 679
P3_MyD88 Rank (before) [6]: 2807

HSEWACHELYFSHFWP
P3_MyD88 Rank (after) [3]: 551
P3_MyD88 Rank (before) [4]: 2827

HWIDWEYFVALKIIL
Rank (after) [7]: 427
Rank (before) [8]: 1236

HWIDWVWDYLLPNLEGPAG
P8_MyD88 Rank (after) [9]: 581
P8_MyD88 Rank (before) [10]: 3518

HWIEWEYFVGIEEHIK
Rank (after) [7]: 397
Rank (before) [8]: 3541

HYTDSYFALHELALLL
Rank (after) [7]: 128
Rank (before) [8]: 138
Population [11]: 0.0119%

IAADHLSYLGRLLLSR
Rank (after) [12]: 885
Rank (before) [13]: 3614

IDDDHLTYLVRLIEAL
Rank (after) [7]: 473
Rank (before) [8]: 3638

IDDDHLTYLVRLLLS
P8_MyD88 Rank (after) [9]: 597
P8_MyD88 Rank (before) [10]: 3635

IDDDHLTYLVRLLLSLL
P8_MyD88 Rank (after) [3]: 539
P8_MyD88 Rank (before) [4]: 3634

IDDDHLTYLVRLLQIA
P8_MyD88 Rank (after) [5]: 761
P8_MyD88 Rank (before) [6]: 3637

IDDDHLTYLVRLLYSL
P8_MyD88 Rank (after) [9]: 607
P8_MyD88 Rank (before) [10]: 3631

IDDDHLTYLVRLLYSLHVT
P8_MyD88 Rank (after) [9]: 669
P8_MyD88 Rank (before) [10]: 3630

IDDDHLTYLVRLLYSLHVTE
Rank (after) [12]: 895
Rank (before) [13]: 3629

IDDDHLYAALVQAGIL
P8_MyD88 Rank (after) [9]: 639
P8_MyD88 Rank (before) [10]: 3622

IDDEHLTYLGRLLLSR
P8_MyD88 Rank (after) [9]: 580
P8_MyD88 Rank (before) [10]: 3649

IDDHHLTFLVSLLLSL
Rank (after) [12]: 975
Rank (before) [13]: 3651

IFISHLYNSLTNAGIY
Rank (after) [7]: 178
Rank (before) [8]: 227

IQCRNATSPAALLIGR
P8_MyD88 Rank (after) [9]: 651
P8_MyD88 Rank (before) [10]: 3652

ISFREGLWRLLELSKK
Population [14]: 0.00291%

ISYRQGRWRLLELSKK
Rank (after) [1]: 461
Rank (before) [2]: 2919

IVQALWSKVHHSLTLF
Rank (after) [7]: 145
Rank (before) [8]: 157
Population [11]: 0.01%

IVQEQDGFWVRLIEAL
P8_MyD88 Rank (after) [9]: 616
P8_MyD88 Rank (before) [10]: 3611

IWVWDFYNSQLEGPMG
P8_MyD88 Rank (after) [5]: 753
P8_MyD88 Rank (before) [6]: 3609

KARQFGALREEKLRAA
Rank (after) [1]: 425
Rank (before) [2]: 3599

KDVEGWRDALTKVASL
Population [14]: 0.00349%

KELVHVWSSKANSRVG
P3_MyD88 Rank (after) [9]: 651
P3_MyD88 Rank (before) [10]: 3662

KEPENYRFALHERDFP
P3_MyD88 Rank (after) [9]: 662
P3_MyD88 Rank (before) [10]: 3685

KEPERYQFAIPERDFP
P3_MyD88 Rank (after) [3]: 540
P3_MyD88 Rank (before) [4]: 3681

KEREFGAQRAGKWRAA
P3_MyD88 Rank (after) [9]: 670
P3_MyD88 Rank (before) [10]: 3663

KERPFGAQRAEKCVP
Rank (after) [1]: 447
Rank (before) [2]: 3673

KERPFGAQRAEKWRAALT
P3_MyD88 Rank (after) [3]: 567
P3_MyD88 Rank (before) [4]: 3671

KEVEGWRCADQSGEP
P3_MyD88 Rank (after) [9]: 666
P3_MyD88 Rank (before) [10]: 3653

KEVEGWRDALPTVASL
P3_MyD88 Rank (after) [15]: 220
P3_MyD88 Rank (before) [16]: 3622

KEVEGWRDALTKAANL
Rank (after) [1]: 138
Rank (before) [2]: 3640

KEVEGWRDALTKVACR
Rank (after) [1]: 109
Rank (before) [2]: 1305

KEVEGWRDALTKVATI
Population [14]: 0.0032%

KEVEGWRDALYEAANLS
P3_MyD88 Rank (after) [5]: 684
P3_MyD88 Rank (before) [6]: 3620

KEVEGWRGALTKKASL
P3_MyD88 Rank (after) [9]: 626
P3_MyD88 Rank (before) [10]: 3614

KEVEGWRNALTNVASL
P3_MyD88 Rank (after) [9]: 617
P3_MyD88 Rank (before) [10]: 3650

KEVEVWRDALTKVVGL
P3_MyD88 Rank (after) [5]: 713
P3_MyD88 Rank (before) [6]: 3606

KEVKGWRDALTTVASL
P3_MyD88 Rank (after) [15]: 252
P3_MyD88 Rank (before) [16]: 3659

KFFLFFMILAFSMNR
P8_MyD88 Rank (after) [3]: 487
P8_MyD88 Rank (before) [4]: 3892

KIARCMIFGVFWKAP
P8_MyD88 Rank (after) [3]: 527
P8_MyD88 Rank (before) [4]: 3897

KLDSAMIIKVQRWREA
P3_MyD88 Rank (after) [9]: 618
P3_MyD88 Rank (before) [10]: 3698

KLDSARMRKVQRLRET
P3_MyD88 Rank (after) [3]: 576
P3_MyD88 Rank (before) [4]: 3706

KMQKWKDALYEAPNL
Rank (after) [1]: 113
Rank (before) [2]: 1321

KMQKWNDALYEAAHLR
P3_MyD88 Rank (after) [9]: 636
P3_MyD88 Rank (before) [10]: 3714

KNLFNELVHVWSSKANSLVG
Rank (after) [1]: 148
Rank (before) [2]: 800

KNLFNELVSKNIRTL
Rank (after) [1]: 103
Rank (before) [2]: 542

KNLFNELVSKNIVPL
P3_MyD88 Rank (after) [5]: 686
P3_MyD88 Rank (before) [6]: 3755

KNLFNLLGSKDIRALM
P3_MyD88 Rank (after) [3]: 542
P3_MyD88 Rank (before) [4]: 3781

KNLIMEQLSKELHTVM
P3_MyD88 Rank (after) [5]: 724
P3_MyD88 Rank (before) [6]: 3792

KNLLNALMSKNIRTFM
P3_MyD88 Rank (after) [9]: 622
P3_MyD88 Rank (before) [10]: 3789

KNLLNELVSKNIRTFM
Population [14]: 0.00466%

KNLLNELVSKTIRTFM
Rank (after) [1]: 470
Rank (before) [2]: 3790

KNLSNELVSKNILTFM
P3_MyD88 Rank (after) [15]: 260
P3_MyD88 Rank (before) [16]: 3787

KQWRNALTAEANLSGW
P3_MyD88 Rank (after) [3]: 557
P3_MyD88 Rank (before) [4]: 3552

KWFWDKLKYALPHRYEP
Rank (after) [1]: 128
Rank (before) [2]: 790

KWLWDKLIYARSRNPH
P3_MyD88 Rank (after) [3]: 490
P3_MyD88 Rank (before) [4]: 3584

KWLWEKRTCGHSRNTA
P3_MyD88 Rank (after) [5]: 676
P3_MyD88 Rank (before) [6]: 3585

LAANEIRKEMKTLATI
P3_MyD88 Rank (after) [5]: 680
P3_MyD88 Rank (before) [6]: 2326

LADALERYGIMFIIDK
Rank (after) [7]: 184
Rank (before) [8]: 236

LAIIGLIGSILWALK
P8_MyD88 Rank (after) [15]: 210
P8_MyD88 Rank (before) [16]: 492

LEANDSLFWDRLIRMIE
P8_MyD88 Rank (after) [9]: 635
P8_MyD88 Rank (before) [10]: 3374

LEANDSLFWDRLLYSLHVTE
Rank (after) [7]: 179
Rank (before) [8]: 214

LEANDSLFWDRLYY
Rank (after) [7]: 403
Rank (before) [8]: 1189

LEWGEPIVLEKQRSVT
P3_MyD88 Rank (after) [3]: 563
P3_MyD88 Rank (before) [4]: 2328

LEYRWIDWEYFVGLED
Rank (after) [12]: 886
Rank (before) [13]: 3357

LFWANLRAALQGDLPY
Rank (after) [7]: 130
Rank (before) [8]: 143
Population [11]: 0.0116%

LFWDRLIYAVSDVASA
Rank (after) [7]: 111
Rank (before) [8]: 119
Population [11]: 0.02%

LFWDRLLYSLHVTE
P8_MyD88 Rank (after) [3]: 569
P8_MyD88 Rank (before) [4]: 3208

LGFNWMDWEYFVGIEG
P8_MyD88 Rank (after) [9]: 671
P8_MyD88 Rank (before) [10]: 3216

LGTHEISKEMKIFATI
P3_MyD88 Rank (after) [3]: 571
P3_MyD88 Rank (before) [4]: 2323
